Laboratory results taken from ChEMBL document CHEMBL3272278, “Electronic factors in the structure-activity relationship of some 1,4-benzodiazepin-2-ones” (1977).
Active and inactive are the calls of the source. No cut-off for these calls is given here.

Legend:
Felis catus [1] = species on record: Felis catus; assay: Muscle relaxant activity in cat suspended by scruff of neck assessed as relaxation of body and hind legs; format: functional
Mus musculus [2] = species on record: Mus musculus; assay: Muscle relaxant activity in mouse; format: functional
Mus musculus [3] = species on record: Mus musculus; assay: Taming activity in mouse assessed as suppression of electrical current-induced aggressive behavior by foot-shock test; format: functional
Felis catus [4] = species on record: Felis catus; assay: Sedative activity in cat; format: functional, organism-based
Mus musculus [5] = species on record: Mus musculus; assay: Anticonvulsion activity in mouse assessed as protection against pentylenetetrazole-induced convulsion; format: functional
Mus musculus [6] = species on record: Mus musculus; assay: Sedative activity in mouse; format: functional

O=C1CN=C(c2ccc(F)cc2)c2cc(Cl)ccc2N1
Activity (Felis catus [1]): inactive | Activity (Mus musculus [2]): inactive | Activity (Mus musculus [3]): inactive | Activity (Felis catus [4]): inactive | Activity (Mus musculus [5]): inactive | Activity (Mus musculus [6]): inactive

O=C1CN=C(c2ccc(Cl)cc2Cl)c2cc(Cl)ccc2N1
Activity (Felis catus [1]): inactive | Activity (Mus musculus [2]): inactive | Activity (Mus musculus [3]): inactive | Activity (Felis catus [4]): inactive | log(1/ED50) (Mus musculus [5]): -0.3724 | Activity (Mus musculus [6]): inactive

Cc1cc([N+](=O)[O-])cc2c1NC(=O)CN=C2c1ccccc1
log(1/MED) (Felis catus [1]): 2.7709 | log(1/ED50) (Mus musculus [2]): 1.1688 | log(1/MED) (Mus musculus [3]): 1.1688 | log(1/ED50) (Mus musculus [5]): 1.5613 | log(1/ED50) (Mus musculus [6]): 1.1688

CN1C(=O)CN=C(c2ccccc2Cl)c2cc(Cl)ccc21
log(1/MED) (Felis catus [1]): 3.5037 | log(1/ED50) (Mus musculus [2]): 0.9016 | log(1/MED) (Mus musculus [3]): 1.5037 | log(1/ED50) (Mus musculus [5]): 2.8804 | log(1/ED50) (Mus musculus [6]): 0.9016

CN1C(=O)CN=C(c2ccccc2)c2cc(Cl)ccc21 [DIAZEPAM]
log(1/MED) (Felis catus [1]): 3.153 | log(1/ED50) (Mus musculus [2]): 0.9769 | log(1/MED) (Mus musculus [3]): 1.454 | log(1/ED50) (Mus musculus [5]): 2.3079 | log(1/ED50) (Mus musculus [6]): 0.9769

CN1C(=O)CN=C(c2ccccc2C(F)(F)F)c2cc([N+](=O)[O-])ccc21
log(1/MED) (Felis catus [1]): 3.5599 | log(1/ED50) (Mus musculus [2]): 0.8609 | log(1/MED) (Mus musculus [3]): 1.8609 | log(1/ED50) (Mus musculus [5]): 2.7148 | log(1/ED50) (Mus musculus [6]): 0.8609

O=C1CN=C(c2ccccc2)c2cc(Br)ccc2N1
log(1/MED) (Felis catus [1]): 2.7992 | log(1/ED50) (Mus musculus [2]): 1.1002 | log(1/MED) (Mus musculus [3]): 1.1971 | log(1/ED50) (Mus musculus [5]): 2.1971 | log(1/ED50) (Mus musculus [6]): 1.1002

O=C1CN=C(c2ccccc2)c2ccccc2N1 [RO-052921]
Activity (Felis catus [1]): inactive | log(1/ED50) (Mus musculus [2]): 0.1968 | log(1/MED) (Mus musculus [3]): 0.3729 | Activity (Felis catus [4]): inactive | Activity (Mus musculus [5]): inactive | log(1/ED50) (Mus musculus [6]): 0.1968

O=C1CN=C(c2ccccc2Cl)c2cc(Cl)ccc2N1 [DELORAZEPAM]
log(1/MED) (Felis catus [1]): 3.4842 | log(1/ED50) (Mus musculus [2]): 0.4842 | log(1/MED) (Mus musculus [3]): 0.8821 | ED50 (Mus musculus [3]; Mus musculus): 2 mg/kg | log(1/ED50) (Mus musculus [5]): 2.8821 | log(1/ED50) (Mus musculus [6]): 0.4842

O=C1CN=C(c2ccccc2Cl)c2cc([N+](=O)[O-])ccc2N1 [CLONAZEPAM]
log(1/MED) (Felis catus [1]): 3.8 | Activity (Mus musculus [2]): inactive | log(1/MED) (Mus musculus [3]): 1.1979 | log(1/ED50) (Mus musculus [5]): 3.2948 | Activity (Mus musculus [6]): inactive

O=C1CN=C(c2ccccc2Br)c2cc(Cl)ccc2N1
log(1/MED) (Felis catus [1]): 4.0661 | log(1/ED50) (Mus musculus [2]): 0.8443 | log(1/MED) (Mus musculus [3]): 1.8443 | log(1/ED50) (Mus musculus [5]): 2.7651 | log(1/ED50) (Mus musculus [6]): 0.8443

CN(C)c1ccc2c(c1)C(c1ccccc1Cl)=NCC(=O)N2C
log(1/MED) (Felis catus [1]): 1.9131 | log(1/ED50) (Mus musculus [2]): 0.3391 | log(1/MED) (Mus musculus [3]): 0.6121 | log(1/ED50) (Mus musculus [5]): 2.8162 | log(1/ED50) (Mus musculus [6]): 0.3391

CN(C)c1ccc2c(c1)C(c1ccccc1)=NCC(=O)N2
log(1/MED) (Felis catus [1]): 1.4456 | Activity (Mus musculus [2]): inactive | Activity (Mus musculus [3]): inactive | log(1/ED50) (Mus musculus [5]): 0.8224 | Activity (Mus musculus [6]): inactive

O=C1CN=C(c2ccccc2C(F)(F)F)c2cc([N+](=O)[O-])ccc2N1
log(1/MED) (Felis catus [1]): 3.5424 | log(1/ED50) (Mus musculus [2]): 0.5428 | log(1/MED) (Mus musculus [3]): 1.5428 | log(1/ED50) (Mus musculus [5]): 2.6977 | log(1/ED50) (Mus musculus [6]): 0.5428

CN1C(=O)CN=C(c2ccccc2F)c2ccccc21 [RO-054520]
log(1/MED) (Felis catus [1]): 2.4281 | log(1/ED50) (Mus musculus [2]): 0.1271 | log(1/MED) (Mus musculus [3]): 0.8261 | log(1/ED50) (Mus musculus [5]): 1.525 | log(1/ED50) (Mus musculus [6]): 0.1271

O=C1CN=C(c2ccccc2)c2cc(Cl)cc(Cl)c2N1
log(1/MED) (Felis catus [1]): 2.1831 | log(1/ED50) (Mus musculus [2]): 0.3081 | Activity (Mus musculus [3]): inactive | log(1/ED50) (Mus musculus [5]): 1.5651 | log(1/ED50) (Mus musculus [6]): 0.3081

N#Cc1ccc2c(c1)C(c1ccccc1)=NCC(=O)N2
log(1/MED) (Felis catus [1]): 2.7177 | log(1/ED50) (Mus musculus [2]): 0.5416 | log(1/MED) (Mus musculus [3]): 0.8146 | log(1/ED50) (Mus musculus [5]): 2.3027 | log(1/ED50) (Mus musculus [6]): 0.5416
